Results taken from PubChem BioAssay (NCI).
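Following 48 hours of exposure in 96-well plates, responses at five concentrations were used to interpolate endpoints linearly. GI50 = concentration required for 50% inhibition of growth. TGI: total growth inhibition.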

Key:
Assay in all cases: NCI-60 cell line screen, 48 h
[1] = tested on: KM12 colon
[2] = tested on: NCI/ADR-RES ovarian
[3] = tested on: SK-MEL-28 melanoma
[4] = tested on: HCT-15 colon
[5] = tested on: MCF7 breast
[6] = tested on: HOP-62 NSCLC
[7] = tested on: MDA-MB-468 breast
[8] = tested on: SK-OV-3 ovarian
[9] = tested on: NCI-H460 lung
[10] = tested on: A498 renal
[11] = tested on: COLO 205 colon
[12] = tested on: HCC-2998 colon
[13] = tested on: NCI-H522 lung
[14] = tested on: SNB-75 CNS
[15] = tested on: LOX IMVI melanoma
[16] = tested on: SF-295 CNS
[17] = tested on: SR leukemia
[18] = tested on: T-47D breast
[19] = tested on: TK-10 renal
[20] = tested on: CCRF-CEM leukemia
[21] = tested on: UACC-62 melanoma
[22] = tested on: MDA-MB-231 breast
[23] = tested on: MOLT-4 leukemia
[24] = tested on: SK-MEL-2 melanoma
[25] = tested on: RPMI-8226 leukemia
[26] = tested on: NCI-H23 lung
[27] = tested on: ACHN renal
[28] = tested on: MALME-3M melanoma
[29] = tested on: PC-3 prostate
[30] = tested on: BT-549 breast
[31] = tested on: M14 melanoma
[32] = tested on: HS 578T breast
[33] = tested on: IGROV1 ovarian
[34] = tested on: SNB-19 CNS
[35] = tested on: EKVX NSCLC
[36] = tested on: OVCAR-3 ovarian
[37] = tested on: HOP-92 NSCLC
[38] = tested on: NCI-H226 lung
[39] = tested on: RXF 393 renal
[40] = tested on: HT29 colon
[41] = tested on: U251 CNS
[42] = tested on: SF-268 CNS
[43] = tested on: UACC-257 melanoma
[44] = tested on: OVCAR-5 ovarian
[45] = tested on: HL-60(TB) leukemia
[46] = tested on: DU-145 prostate
[47] = tested on: SK-MEL-5 melanoma
[48] = tested on: SF-539 CNS
[49] = tested on: HCT-116 colon
[50] = tested on: SW-620 colon
[51] = tested on: CAKI-1 renal
[52] = tested on: K-562 leukemia
[53] = tested on: A549 NSCLC
[54] = tested on: OVCAR-4 ovarian
[55] = tested on: MDA-MB-435
[56] = tested on: 786-0 renal
[57] = tested on: SN12C renal
[58] = tested on: UO-31 renal
[59] = tested on: OVCAR-8 ovarian

Molecule CC(=O)NCC1=C(C)C=C2C(=O)[C@](C)(O)C3(CC3)C(C)=C21 has a GI50 [1] of 0.257 µM, a TGI [1] of 5.85 µM and a GI50 [2] of 0.0648 µM. For the same molecule, the TGI [2] was 0.323 µM, the GI50 [3] was 0.125 µM and the TGI [3] was 0.293 µM. For the same molecule, the GI50 [4] was 0.044 µM, the TGI [4] was 0.325 µM and the GI50 [5] was 0.214 µM. For the same molecule, the TGI [5] was greater than 20.6 µM, the GI50 [6] was 0.0246 µM and the TGI [6] was 0.0761 µM. It also gave a GI50 [7] of less than 0.0136 µM, a TGI [7] of 0.0303 µM and a GI50 [8] of 0.0301 µM. For the same molecule, the TGI [8] was 0.0993 µM, the GI50 [9] was 0.0225 µM and the TGI [9] was 0.132 µM. The GI50 [10] was 0.0257 µM, the TGI [10] was 0.0655 µM and the GI50 [11] was 0.039 µM. The TGI [11] was 0.162 µM, the GI50 [12] was 0.0287 µM and the TGI [12] was 0.103 µM. For the same molecule, the GI50 [13] was 0.254 µM, the TGI [13] was 0.997 µM and the GI50 [14] was 0.0197 µM. For the same molecule, the TGI [14] was 0.0735 µM, the GI50 [15] was 0.136 µM and the TGI [15] was 0.354 µM. It also gave a GI50 [16] of 0.0262 µM, a TGI [16] of 0.122 µM and a GI50 [17] of 5.7 µM. For the same molecule, the TGI [17] was greater than 100 µM, the GI50 [18] was 0.0438 µM and the TGI [18] was 0.84 µM. It also gave a GI50 [19] of 0.0364 µM, a GI50 [20] of 13.5 µM and a TGI [20] greater than 84.9 µM. The GI50 [21] was 0.132 µM, the TGI [21] was 0.278 µM and the GI50 [22] was 0.067 µM. The TGI [22] was 0.306 µM, the GI50 [23] was 8.44 µM and the TGI [23] was greater than 100 µM. The GI50 [24] was 0.179 µM, the TGI [24] was 0.346 µM and the GI50 [25] was 22.9 µM. The TGI [25] was greater than 83.5 µM, the GI50 [26] was 0.0159 µM and the TGI [26] was 0.0372 µM. The GI50 [27] was 0.0228 µM, the TGI [27] was 0.0578 µM and the GI50 [28] was 0.0602 µM. The TGI [28] was 0.181 µM, the GI50 [29] was 0.068 µM and the TGI [29] was 0.898 µM. For the same molecule, the GI50 [30] was 0.0277 µM, the TGI [30] was 0.0991 µM and the GI50 [31] was 0.0712 µM. The TGI [31] was 0.22 µM, the GI50 [32] was 0.204 µM and the TGI [32] was 0.678 µM. The GI50 [33] was 0.028 µM, the TGI [33] was 0.0804 µM and the GI50 [34] was 0.163 µM. The TGI [34] was 0.751 µM, the GI50 [35] was 0.116 µM and the TGI [35] was 0.356 µM. It also gave a GI50 [36] of 0.0397 µM, a TGI [36] of 0.472 µM and a GI50 [37] of 0.0261 µM. The TGI [37] was 0.0702 µM, the GI50 [38] was 0.143 µM and the TGI [38] was 0.615 µM. The GI50 [39] was 0.0164 µM, the TGI [39] was 0.0328 µM and the GI50 [40] was 0.0356 µM. It also gave a GI50 [41] of 0.051 µM, a GI50 [42] of 0.0332 µM and a TGI [42] of 0.577 µM. It also gave a GI50 [43] of 0.0934 µM, a TGI [43] of 0.29 µM and a GI50 [44] of 0.0342 µM. For the same molecule, the TGI [44] was 0.24 µM, the GI50 [45] was 0.0279 µM and the TGI [45] was 0.876 µM. It also gave a GI50 [46] of 0.0275 µM, a TGI [46] of 0.233 µM and a GI50 [47] of 0.0704 µM. For the same molecule, the TGI [47] was 0.216 µM, the GI50 [48] was 0.0225 µM and the TGI [48] was 0.0565 µM. For the same molecule, the GI50 [49] was 0.0509 µM, the GI50 [50] was 13.4 µM and the TGI [50] was 38.7 µM. For the same molecule, the GI50 [51] was 0.0404 µM, the TGI [51] was 0.791 µM and the GI50 [52] was 15 µM. The TGI [52] was greater than 100 µM, the GI50 [53] was 0.0312 µM and the TGI [53] was 0.33 µM. For the same molecule, the GI50 [54] was 0.071 µM and the TGI [54] was 0.322 µM.
Cc1ccc(C(=O)C(c2c[nH]c3ccccc23)c2c[nH]c3ccccc23)cc1 gave a GI50 [1] of 16.7 µM, a TGI [1] of 31.1 µM and a GI50 [2] of 13.1 µM. It also gave a TGI [2] of 32.2 µM, a GI50 [3] of 14.5 µM and a TGI [3] of 28.1 µM. The GI50 [4] was 4.73 µM, the TGI [4] was 17.6 µM and the GI50 [5] was 3.77 µM. For the same molecule, the TGI [5] was 15.7 µM, the GI50 [6] was 18 µM and the TGI [6] was 42.1 µM. It also gave a GI50 [7] of 14.1 µM, a TGI [7] of 29 µM and a GI50 [8] of 15.9 µM. It also gave a TGI [8] of 33 µM, a GI50 [9] of 11.2 µM and a TGI [9] of 28.7 µM. For the same molecule, the GI50 [10] was 20.5 µM, the TGI [10] was 35.9 µM and the GI50 [11] was 17.1 µM. The TGI [11] was 33 µM, the GI50 [12] was 13.7 µM and the TGI [12] was 27 µM. It also gave a GI50 [13] of 10.7 µM, a TGI [13] of 24.1 µM and a GI50 [14] of 7.91 µM. It also gave a TGI [14] of 21 µM, a GI50 [15] of 3.21 µM and a TGI [15] of 13.8 µM. The GI50 [16] was 14.8 µM, the TGI [16] was 28.1 µM and the GI50 [17] was 11 µM. It also gave a TGI [17] of 77.6 µM, a GI50 [18] of 9.57 µM and a TGI [18] of 28.4 µM. The GI50 [19] was 24.8 µM, the TGI [19] was 40.6 µM and the GI50 [20] was 3.02 µM. For the same molecule, the TGI [20] was greater than 100 µM, the GI50 [21] was 13.9 µM and the TGI [21] was 27.9 µM. It also gave a GI50 [22] of 14.1 µM, a TGI [22] of 31 µM and a GI50 [23] of 3.95 µM. For the same molecule, the TGI [23] was 80.4 µM, the GI50 [24] was 14.5 µM and the TGI [24] was 28.7 µM. For the same molecule, the GI50 [25] was 8.31 µM, the TGI [25] was greater than 100 µM and the GI50 [26] was 11.5 µM. It also gave a TGI [26] of 25.9 µM, a GI50 [27] of 10.9 µM and a TGI [27] of 22.8 µM. It also gave a GI50 [28] of 16 µM, a TGI [28] of 31.2 µM and a GI50 [29] of 6.96 µM. The TGI [29] was 28.3 µM, the GI50 [55] was 15.1 µM and the TGI [55] was 29.7 µM. The GI50 [30] was 12.8 µM, the TGI [30] was 26.5 µM and the GI50 [31] was 12.6 µM. For the same molecule, the TGI [31] was 29.1 µM, the GI50 [32] was 16.6 µM and the TGI [32] was 47.1 µM. For the same molecule, the GI50 [33] was 11.7 µM, the TGI [33] was 26.5 µM and the GI50 [34] was 16.9 µM. The TGI [34] was 31.4 µM, the GI50 [35] was 13.7 µM and the TGI [35] was 27 µM. The GI50 [36] was 11.3 µM, the TGI [36] was 23.6 µM and the GI50 [37] was 16.3 µM. The TGI [37] was 33.3 µM, the GI50 [38] was 13.8 µM and the TGI [38] was 29.4 µM. The GI50 [39] was 12.5 µM, the TGI [39] was 29.6 µM and the GI50 [40] was 6.98 µM. The TGI [40] was 22.1 µM, the GI50 [41] was 15.9 µM and the TGI [41] was 30.9 µM. For the same molecule, the GI50 [56] was 12.9 µM, the TGI [56] was 29.1 µM and the GI50 [42] was 10.6 µM. For the same molecule, the TGI [42] was 25.4 µM, the GI50 [57] was 11.1 µM and the TGI [57] was 24.2 µM. For the same molecule, the GI50 [43] was 13.2 µM, the TGI [43] was 26.8 µM and the GI50 [44] was 14.7 µM. The TGI [44] was 29 µM, the GI50 [45] was 6.82 µM and the TGI [45] was 38.2 µM. The GI50 [46] was 14.4 µM, the TGI [46] was 27.8 µM and the GI50 [47] was 15.5 µM. For the same molecule, the TGI [47] was 29.2 µM, the GI50 [48] was 15.2 µM and the TGI [48] was 29 µM. The GI50 [49] was 3.76 µM, the TGI [49] was 15.2 µM and the GI50 [50] was 3.55 µM. For the same molecule, the TGI [50] was 13.5 µM, the GI50 [58] was 11.3 µM and the TGI [58] was 23.4 µM. The GI50 [51] was 9.39 µM, the TGI [51] was 21.4 µM and the GI50 [52] was 3.88 µM. It also gave a TGI [52] greater than 100 µM, a GI50 [53] of 15 µM and a TGI [53] of 33.1 µM. The GI50 [59] was 16.7 µM, the TGI [59] was 34.1 µM and the GI50 [54] was 13.2 µM. For the same molecule, the TGI [54] was 28.2 µM.
